This note sets out measurements from patent publication US9149039B2, “Anthranilic diamide/polymer propagule-coating compositions” (E I DU PONT DE NEMOURS AND COMPANY, priority 2011, dated 2015).

In this assay the test system is Spodoptera frugiperda. The experiment in a line: Laboratory test of 2nd instar larva of Spodoptera frugiperda on maize leaves (mortality). It counts as in vivo.

In the case of `CNC(=O)c1cc(Cl)cc(C)c1NC(=O)c1cc(Br)nn1-c1ncccc1Cl` [Compound 2, 3-bromo-N-[4-chloro-2-methyl-6-[(methylamino)carbonyl]phenyl]-1-(3-chloro-2-pyridinyl)-1H-pyrazole-5-carboxamide], the “concentration per g of leaf tissue resulting in 50% mortality within 72 h” value (50% mortality within 72 h) is 0.033 micrograms per g of leaf tissu. Moreover, the “concentration per g of tissue needed to achieve 100% mortality within 72 h” value (100% mortality within 72 h) is reported as 0.037 micrograms per g of tissue.
